Source: patent US20170283834A1, “Processes for Producing A Fermentation Product Using A Fermenting Organism” (Novozymes A/S, priority 2014, published 2017)

Key:
[1] = tested on: Ethanol Red™; experiment: Addition of acetate to ethanol fermentations (SSF of corn mash); conditions: for % change over no added acetate: glycerol
Procedure: The yeast strain tested in this experiment was Ethanol […] ). […] After a total of 30 minutes, the flasks were removed from the water bath. Total yeast concentration was determined using the YC-100 in duplicate. LactrolTM (PhibroChem) was added to each mash to a final concentration of 24 ppm. […] Approximately 5 grams of each of the resulting mashes was transferred to test tubes having a 1/64 hole drilled in the top to allow CO2 release. […] Yeast was dosed at 5×10e6 cells/g mash. Milli-Q water was added to each tube so that a total volume of liquid added (enzyme+MQ water+acid) to each tube would be equally proportionate to the mash weight. Fermentations took place in a 32° C. water bath for 54 hours. Samples were vortexed periodically (in the morning and in the evening) throughout the fermentation. […] Fermentation sampling took place after 48 and 54 hours of fermentation by sacrificing 3 tubes per treatment. […] All samples were processed without further dilution. Samples were stored at 4° C. prior to and during HPLC analysis. Samples were analyzed for sugars (DP4+, DP3, DP2, glucose, and fructose), organic acids (lactic and acetic), glycerol, and ethanol.

[2] = tested on: zein; experiment: Relative activity assay of protease variants (zein micro titer plate); type: biochemical
In short: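 Yeast culture supernatants (3 days, 28 °C) incubated over 4 h or overnight on zein-agar plates (pH 4.5 acetate, 0.25 mM ZnSO4) at two temperatures. Zein turbidity read at A630; higher/lower-temperature activity ratio gives relative thermoactivity.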

[3] = tested on: zein; experiment: Zein-BCA assay, temperature profile of purified protease variants; type: biochemical
Procedure: Selected variants showing good thermo-stability were purified and the purified enzymes were used in a zein-BCA assay as described below. The remaining protease activity was determined at 60° C. after incubation of the enzyme at elevated temperatures as indicated for 60 min.
Zein-BCA assay was performed to detect soluble protein quantification released from zein by variant proteases at various temperatures.
• 1) Mix 10 ul of 10 ug/ml enzyme solutions and 100 ul of 0.025% zein solution in a micro titer plate (MTP). • 2) Incubate at various temperatures for 60 min. • 3) Add 10 ul of 100% trichloroacetic acid (TCA) solution. • 4) Centrifuge MTP at 3500 rpm for 5 min. • 5) Take out 15 ul to a new MTP containing 100 ul of BCA assay solution (Pierce Cat#:23225, BCA Protein Assay Kit). • 6) Incubate for 30 min. at 60° C. • 7) Measure A562.

CC(=O)O [Acetate, acetic acid]
Glycerol levels with added acetate [1]: reduced | 48 Hour ETOH (w/v %) ([1]; Added Acetate 5 mM, 48 hours): 13.55 w/v % | 48 Hour Glycerol (w/v %) ([1]; Added Acetate 5 mM, 48 hours): 1.636 w/v % | % Boost over no added acetate ([1]; Added Acetate 5 mM, 48 hours): 0.28% | 54 Hour ETOH (w/v %) ([1]; Added Acetate 5 mM, 54 hours): 13.71 w/v % | 54 Hour Glycerol (w/v %) ([1]; Added Acetate 5 mM, 54 hours): 1.625 w/v % | % Boost over no added acetate ([1]; Added Acetate 5 mM, 54 hours): 0.97% | 48 Hour ETOH (w/v %) ([1]; Added Acetate 10 mM, 48 hours): 13.66 w/v % | 48 Hour Glycerol (w/v %) ([1]; Added Acetate 10 mM, 48 hours): 1.553 w/v % | % Boost over no added acetate ([1]; Added Acetate 10 mM, 48 hours): 1.07% | 54 Hour ETOH (w/v %) ([1]; Added Acetate 10 mM, 54 hours): 13.73 w/v % | 54 Hour Glycerol (w/v %) ([1]; Added Acetate 10 mM, 54 hours): 1.569 w/v % | % Boost over no added acetate ([1]; Added Acetate 10 mM, 54 hours): 1.10% | 48 Hour ETOH (w/v %) ([1]; Added Acetate 20 mM, 48 hours): 13.77 w/v % | 48 Hour Glycerol (w/v %) ([1]; Added Acetate 20 mM, 48 hours): 1.462 w/v % | % Boost over no added acetate ([1]; Added Acetate 20 mM, 48 hours): 1.88% | 54 Hour ETOH (w/v %) ([1]; Added Acetate 20 mM, 54 hours): 13.83 w/v % | 54 Hour Glycerol (w/v %) ([1]; Added Acetate 20 mM, 54 hours): 1.45 w/v % | % Boost over no added acetate ([1]; Added Acetate 20 mM, 54 hours): 1.90% | 48 Hour ETOH (w/v %) ([1]; Added Acetate 40 mM, 48 hours): 13.82 w/v % | 48 Hour Glycerol (w/v %) ([1]; Added Acetate 40 mM, 48 hours): 1.365 w/v % | % Boost over no added acetate ([1]; Added Acetate 40 mM, 48 hours): 2.29% | 54 Hour ETOH (w/v %) ([1]; Added Acetate 40 mM, 54 hours): 13.83 w/v % | 54 Hour Glycerol (w/v %) ([1]; Added Acetate 40 mM, 54 hours): 1.365 w/v % | % Boost over no added acetate ([1]; Added Acetate 40 mM, 54 hours): 1.84% | 48 Hour ETOH (w/v %) ([1]; Added Acetate 60 mM, 48 hours): 13.88 w/v % | 48 Hour Glycerol (w/v %) ([1]; Added Acetate 60 mM, 48 hours): 1.332 w/v % | % Boost over no added acetate ([1]; Added Acetate 60 mM, 48 hours): 2.71% | 54 Hour ETOH (w/v %) ([1]; Added Acetate 60 mM, 54 hours): 13.83 w/v % | 54 Hour Glycerol (w/v %) ([1]; Added Acetate 60 mM, 54 hours): 1.323 w/v % | % Boost over no added acetate ([1]; Added Acetate 60 mM, 54 hours): 1.84% | 48 Hour ETOH (w/v %) ([1]; Added Acetate 120 mM, 48 hours): 12.92 w/v % | 48 Hour Glycerol (w/v %) ([1]; Added Acetate 120 mM, 48 hours): 1.337 w/v % | % Boost over no added acetate ([1]; Added Acetate 120 mM, 48 hours): −4.41% | 54 Hour ETOH (w/v %) ([1]; Added Acetate 120 mM, 54 hours): 12.94 w/v % | 54 Hour Glycerol (w/v %) ([1]; Added Acetate 120 mM, 54 hours): 1.34 w/v % | % Boost over no added acetate ([1]; Added Acetate 120 mM, 54 hours): −4.68% | % change over no added acetate ([1]; Added Acetate 5 mM, 48 hours): −4.68% | % change over no added acetate ([1]; Added Acetate 5 mM, 54 hours): −3.86% | % change over no added acetate ([1]; Added Acetate 10 mM, 48 hours): −9.53% | % change over no added acetate ([1]; Added Acetate 10 mM, 54 hours): −7.18% | % change over no added acetate ([1]; Added Acetate 20 mM, 48 hours): −14.85% | % change over no added acetate ([1]; Added Acetate 20 mM, 54 hours): −14.21% | % change over no added acetate ([1]; Added Acetate 40 mM, 48 hours): −20.48% | % change over no added acetate ([1]; Added Acetate 40 mM, 54 hours): −19.21% | % change over no added acetate ([1]; Added Acetate 60 mM, 48 hours): −22.40% | % change over no added acetate ([1]; Added Acetate 60 mM, 54 hours): −21.70% | % change over no added acetate ([1]; Added Acetate 120 mM, 48 hours): −22.09% | % change over no added acetate ([1]; Added Acetate 120 mM, 54 hours): −20.68%

B1: WT: wild type Thermoascus aurantiacus M35 metallo protease, mature peptide amino acids 1 to 177 of SEQ ID NO: 3, no substitution (protein, listed as Thermoascus aurantiacus)
chain: MRLVASLTALVALSVPVFPAAVNVKRASSYLEITLSQVSNTLIKAVVQNTGSDELSFVHLNFFKDPAPVKKVSVYRDGSEVQFEGILSRYKSTGLSRDAFTYLAPGESVEDVFDIASTYDLTSGGPVTIRTEGVVPYATANSTDIAGYISYSSNVLTIDVDGAAAATVSKAITPLDR
Relative activity 65° C./60° C. ([2]; Table 2): 31% | Relative activity 70° C./65° C. ([2]; Table 3): 59% | Relative activity 75° C./65° C. ([2]; Table 3): 17% | Bovine serum albumin equivalent peptide released ([3]; Sample incubated 60 min at 60° C.): 94 µg/mL | Bovine serum albumin equivalent peptide released ([3]; Sample incubated 60 min at 70° C.): 103 µg/mL | Bovine serum albumin equivalent peptide released ([3]; Sample incubated 60 min at 75° C.): 107 µg/mL | Bovine serum albumin equivalent peptide released ([3]; Sample incubated 60 min at 80° C.): 93 µg/mL | Bovine serum albumin equivalent peptide released ([3]; Sample incubated 60 min at 85° C.): 58 µg/mL | Bovine serum albumin equivalent peptide released ([3]; Sample incubated 60 min at 90° C.): 38 µg/mL
